Data reported in patent US20140154717A1, “METHOD FOR DETECTING CANCER CELL USING FLUORESCENTLY LABELED L-GLUCOSE DERIVATIVE, AND CANCER CELL-IMAGING AGENT COMPRISING FLUORESCENTLY LABELED L-GLUCOSE DERIVATIVE” (priority 2011, published 2014).
“Also recorded” adds a separate entry of the source.

Experiments:
[1] = system: mouse insulinoma cells (MIN6); assay: Uptake into MIN6 cells with or without inhibitors, fluorescence microplate reader (Flex Station); type: cell-based; conditions: 200 μM, 5 minutes
Procedure: A difference in the uptake of 2-NBDLG (200 μM) and 2-NBDG (200 μM) into mouse insulinoma cells (MIN6) each applied for 5 minutes was analyzed quantitatively by a fluorescence microplate reader Flex Station (manufactured by Molecular Devices Corporation) in the condition whether or not various inhibitors are present. The well used for measurement was a 96-well clear bottomed well plate μ CLEAR-PLATE (Greiner bio-one, BLACK, 96 well, #655090) having longitudinally […] to 12 twelve columns, and MIN6 cell suspension prepared at a proportion of 6×10^5 cells/mL was seeded uniformly into wells from line B to line G at the third column and the fifth column each in an amount of 15 μL. For medium exchange, the half quantity was exchanged every two days in 0 to 4 DIV (days in vitro), and from 5 DIV or later, exchanged every day, and on days 10 to 13 (10 to 13 DIV), the cells were subjected to an experiment. Line A and line H were used as a control for checking correct washout, without seeding cells. In the fourth column, cells were not present, and wells in this column were used as a blank containing only Krebs Ringer buffer solution (KRB, containing 0.1 mM gap junction inhibitor carbenoxolone and 5.6 mM glucose). Evaluation was done in a way that 2-NBDLG or 2-NBDG was charged in each tube of a 8-strip PCR tube, and sucked using a 8-channel pipette and dropped simultaneously into wells. In this way, administration to wells for 2-NBDLG and to wells for 2-NBDG can be done simultaneously, making reliable evaluation possible. As described above, cells are present in 12 wells in the third and the fifth two columns, and these were divide into 4 groups each having 3 wells according to a difference either 2-NBDLG or 2-NBDG and whether an inhibitor is present or absent. Specifically, when checking the effect by the presence or absence of a GLUT inhibitor Cytochalasin B (10 μM) on the uptake of 2-NBDLG (200 μM) and 2-NBDG (200 μM), first, in wells, which are planned to be measured in the presence of Cytochalasin B, Cytochalasin B was added 5 minutes prior to the administration of the fluorescently labeled glucose derivative. Before administration of a fluorescently labeled glucose derivative, the autofluorescence was measured in each well. The measurement was done with Flex Station in Well Scan Mode and in the Bottom Read position at Ex 470 nm, Em 540 nm, Cut off 495 nm, Averaging 3, and Photomultiplier sensitivity: high. In Well Scan Mode of the fluorescence microplate reader Flex Station, one well was divided into nine observation areas and these are measured independently. The presence of approximately 5000 cells in each of 9-divided areas was separately confirmed by Z section measurement of a realtime deconvolution microscope. 2-NBDG and 2-NBDLG were administered with or without Cytochalasin B (37° C., 5 minutes), and after cessation of administration, an operation of adding 250 μL of a KRB solution containing no fluorescently labeled glucose into 50 μL of a solution in a well was repeated 7 times while measuring with a stopwatch, thereby performing washout until the fluorescence intensities of wells in line A and line H set as a control group became equal to the fluorescence intensity of the blank well containing no cell. This process required 7 minutes, and even if cells having broken plasma membrane condition are brought into contact with 2-NBDG and 2-NBDLG, and even if these compounds are once taken up into the cell, these compounds are already eliminated out of the cell and are washed away in measurement, therefore, contribution to an increase in the fluorescence intensity in the whole observation area was judged to be in an ignorable level. This was supported by a separate pharmacological inhibition experiment in which the increase in the fluorescence intensity nearly disappears in the presence of an inhibitor. The above-described method was carried out similarly in the case of other inhibitors. […]

tumor cells (C6 glioma) = assay: In vivo fluorescent imaging using C6 tumor model mice (rat glioma C6 cells transplanted subcutaneously in nude mice); set-up: species or system mouse
Procedure: C6 cells were prepared according to an ordinary method so that the cell number was 2×10^7 cells/mL.
C6 cells were seeded on a 10 cm petri dish, allowed to stand still in a CO2 incubator, and cultured at 37° C. The culture medium was exchanged once every two days.
1 g/L glucose-containing Dulbecco's modified Eagle's Medium (DMEM) (Nacalai No. 08456-65), to which Fetal Bovine Serum (Equitech-Bio SFBM) was added so that the final concentration was 10% and penicillin-streptomycin (Nacalai No. 26253-84) was added so that the final concentration was 1%, was used.
5 to 6-week old athymic nude mice (BALB/cAJcl-nu/nu) were transplanted with 50 μL of a cell suspension adjusted to 2×10^7 cells/mL subcutaneously around the root of right hind paw, under isoflurane anesthesia. The transplanted tumor cells were observed until growing to about 200 to 300 mm^3, and used in vivo fluorescent imaging.
C6 tumor model mice were allowed to stand still in an in vivo fluorescence imaging apparatus IVIS (registered trademark) Kinetics (Caliper Life sciences) under isoflurane anesthesia and autofluorescence of the mouse skin was measured, and subsequently, 400 nmol (100 μL) of 2-NBDLG or 2-NBDG dissolved in physiological saline was administered from the tail vein over a period of 30 seconds, and measurement of the fluorescence imaging was started again from one minute after starting administration. The in vivo fluorescence imaging was measured at an excitation wavelength of 465 nm using a GFP filter (transmittable fluorescence wavelength: 515-575 nm). The measurement was conducted for 45 minutes, and images were taken every one minute during the initial 20 minute and every 5 minutes from 20 to 45 minutes, obtaining 25 images in total. The accumulated values (fluorescence value) of 2-NBDLG and 2-NBDG in the interested area were obtained by subtracting the autofluorescence images from the 25 images taken after administration of 2-NBDLG or 2-NBDG.
A vial of 0.5 mg of 2-NBDLG or 2-NBDG was dissolved in 400 μL of physiological saline directly before the experiment, to prepare a solution having a final concentration of 400 nmol/100 μL.

[2] = system: acutely dissociated neurons; assay: Confocal imaging of 2-NBDLM+2-TRLG mixture in acutely dissociated neurons of substantia nigra pars reticulata; type: cell-based, mouse
Procedure: NaCl 150 mM, KCl 5 mM, MgCl2 1 mM, CaCl2 2 mM, HEPES 10 mM, pH was adjusted to 7.4 by 1M Tris(2-amino-2-hydroxymethyl-1,3-propanediol) solution. The glucose concentration was 10 mM. For the purpose of inhibiting entrance and elimination of fluorescently labeled mannose via a gap junction/hemichannel, 0.1 mM Carbenoxolone (SIGMA #C4790) was added.
NaCl 124 mM, NaHCO3 26 mM, KCl 5 mM, KH2PO4 1.24 mM, CaCl2 2.4 mM, MgSO4.7H2O 1.3 mM, Glucose 10 mM, adjusted to pH7.4 by 95% O2-5% CO2 aeration.
A solution prepared by dissolving 5 mg of poly-L-lysine hydrobromide (SIGMA P6282) in 50 mL of 0.15 M boric acid (adjusted to pH 8.4 with […]) was stocked and refrigerated. This stock solution was diluted at 1/500 to 1/1000 with 0.15 M boric acid, and a cover slip (13 mm×22 mm, Matsunami No. 0 glass) was immersed in the diluted solution and allowed to fix at room temperature for 20 minutes, then, rinsed with distilled water and naturally dried.
Since 2-NBDLM is a stereoisomer of 2-NBDLG and both compounds have the same molecular weight, these compounds were prepared by basically the same method as for preparation of 2-NBDLG liquid and 2-NBDLG+2-TRLG mixture described in the prior publication WO2010/016587 of the present inventors. The concentration of a solution for the administration was as follows. The whole quantity of a 0.5 mg vial was dissolved in 14.6 mL of a HEPES solution for image acquisition to give a 2-NBDLM solution having a final concentration of 100 μM. The dissolving method was carried out similarly to that for preparation of a 2-NBDLG solution in Example 3.
Acutely dissociated neuronal cells were prepared as described below according to the same method as described in the prior publication WO2010/016587 of the present inventors.
Postnatal 13 to 17-day old (juvenile stage) C57BL/6J mice were anesthetized deeply with urethane (i.p. 1.6 g/kg), decapitated according to an ordinary method, then, brain was taken out while pouring a cold Ringer's solution (0° C.) for dissociation, and placed on an ice-cold petri dish and immediately trimmed, then, coronally sectioned brain slices having a thickness of 400 or 500 μm were prepared by a linear slicer (Dosaka Pro7) in a cold Ringer's solution (0° C.). Then, the slice was allowed to restore for 1 hour at room temperature in a chamber (Acrylic incubation chamber manufactured by Harvard Apparatus) containing the above-described Ringer's solution circulating therein through which 95% O2-5% CO2 had been aerated.
The brain slice was immersed in an enzyme solution (31° C.; kept at pH7.4 by aeration with 95% O2-5% CO2) prepared by dissolving a proteolytic enzyme Pronase (10 mg/60 mL) in the above-described Ringer's solution and enzymatically treated. After predetermined period, the enzymatic reaction was stopped by immediately immersing the brain slice in 50-100 mL of a 10 mM glucose-containing HEPES solution at room temperature.
A 60 or 100 mm plastic dish having a silicon plate attached to the bottom was filled with a 10 mM glucose-containing HEPES solution (room temperature, obtained by removing Carbenoxolon from a HEPES solution for confocal image acquisition), and the above-described brain slice was immersed in the solution. Two 27 gauge syringe needles were used to immobilize the brain slice, and left and right mesencephalic substantia nigra pars reticulata were punched out under a microscope with a 18 gauge syringe needle having a tip deformed into an ellipsoidal shape, and preserved at room temperature in the above-described HEPES solution (35 mm culture dish).
Neurons were dissociated by trituration with glass pipettes adjusted to have various point diameters, and allowed to adhere to a glass cover slip coated with poly-L-lysine.
Administration of a mixture was carried out in the same manner as the method of administration to MIN6 cells described in Example 3 (4) to (6).

[3] = Maximum excitation and fluorescence wavelength; type: physicochemical
[4] = 100 μM 2-NBDLM+20 μM 2-TRLG for 5 minutes

O=[N+]([O-])c1ccc(NC2C(O)OC(CO)[C@@H](O)[C@@H]2O)c2nonc12 (stereo partly drawn) [2-NBDG, 2-[N-(7-nitrobenz-2-oxa-1,3-diazole-4-yl)amino]-2-deoxy-D-glucose, reference compound]
effect of GLUT inhibitor Cytochalasin B on uptake into MIN6 cells ([1]; 37° C., Cytochalasin B (10 µM, CB)): significant decrease
uptake into MIN6 cells in buffer containing Na+ versus no Na+ ion (SGLT) ([1]; 37° C., Na(−) buffer, choline substituted): no significant difference
effect of Phloretin on uptake into MIN6 cells ([1]; Phloretin (150 μM, PHT)): underwent inhibition of the uptake
fluorescence values at tumor-transplanted part (Tumor) versus normal tissue (BG), FIG. 3 (tumor cells (C6 glioma); 400 nmol i.v., temporal change over 45 minutes, same result in 6 examples): fluorescence values at normal tissue (red square, BG) are larger than at the tumor-transplanted part
time from which accumulations at the tumor cell-transplanted part were recognized (tumor cells (C6 glioma); 400 nmol/100 μL from the tail vein): around 5 minutes after administration
contrast between tumor-transplanted part and normal tissue (adipocyte-rich dorsal part near neck) (tumor cells (C6 glioma); 400 nmol/100 μL from the tail vein, non-fasted mice): poor contrast; also recorded: not sufficient
uptake/accumulation in normal tissue (tumor cells (C6 glioma); 400 nmol/100 μL from the tail vein, normal tissue (fat tissue on the back, between back bones, muscle)): Intense accumulations

O=[N+]([O-])c1ccc(NC2C(O)OC(CO)[C@H](O)C2O)c2nonc12 (stereo partly drawn) [2-NBDLM, 2-Deoxy-2-[N-(7-nitrobenz-2-oxa-1,3-diazol-4-yl)amino]-L-mannose]
fluorescence in degraded cells, 10 minutes after cessation of administration ([2]; 100 μM 2-NBDLM+20 μM 2-TRLG): already decreased significantly
fluorescence in healthy neuron, 10 minutes after cessation of administration ([2]; 100 μM 2-NBDLM+20 μM 2-TRLG): preserved in the cell
fluorescence in healthy neuron, 22 minutes after cessation of administration ([2]; 100 μM 2-NBDLM+20 μM 2-TRLG): preserved in the cell
uptake into healthy neuron, 2 minutes after cessation of administration ([2]; 100 μM 2-NBDLM+20 μM 2-TRLG): all cells take up
uptake into normal neurons (conclusion) ([2]; 100 μM 2-NBDLM+20 μM 2-TRLG): taken up into normal mouse neurons
uptake into degraded cells during administration [2, 4]: completely invading a cell
uptake into healthy neuron during administration [2, 4]: taken up into a cell during administration
Maximum excited wavelength [3]: 472 nm
Maximum fluorescence wavelength [3]: 539 nm

CN(C)S(=O)(=O)c1ccc(N[C@H](C=O)[C@H](O)[C@@H](O)[C@@H](O)CO)c2nonc12 [2-DBDLG]
Maximum fluorescence wavelength [3]: 570 nm

O=[N+]([O-])c1ccc(NC2C(O)OC(CF)[C@H](O)C2O)c2nonc12 (stereo partly drawn) [6-F-2-NBDLG, 2,6-Dideoxy-6-fluoro-2-[N-(7-nitrobenz-2-oxa-1,3-diazol-4-yl)amino]-L-glucopyranose]
Maximum excited wavelength [3]: 472 nm
Maximum fluorescence wavelength [3]: 538 nm
